“Also recorded” adds a separate entry of the source.
Key:
[1] = assay type: in vitro ADME; details: 64800 sec, […], pH 7.4
Description: Materials. The assay was carried out using Multiscreen PVDF 96-well plates (Millipore, Billerica, Mass.) using the company's Transporter Receiver Plate. The lipid (dioleyoylphosphotidylcholine (DOPC):Stearic Acid (80:20, wt %) in dodecane was obtained from Avanti Polar lipids (Alabaster, Ala.). Hank's Buffered Salt Solution (HBSS), pH 7.4 was obtained from MediaTech (Manassas, Va.).
Methods. Each of the test compounds was diluted to 2.5 mM in DMSO (Sigma, St Louis, Mo.) and further diluted prior to testing to 2.5 μM in HBSS, pH 7.4. The assay was performed using a Millipore 96-well Multiscreen-IP PAMPA plate, 5 μl of the lipid suspension was directly added to the PVDF membrane of the filter plate. Immediately following the addition of the lipid to the membrane, 200 μl of HBSS solution containing the test compound was added to the donor (upper) chamber. HBSS (300 μl) is also added to the receiver plate and the filter and receiver plates assembled and incubated overnight at room temperature in a moistened sealed bag to prevent evaporation. The concentration in the receiver plate as well as an equilibrium plate, that represents a theoretical, partition-free sample, was determined by HPLC-tandem mass spectrometry. Analysis of each compound was performed in triplicate.
Analysis. Analysis of both the acceptor and equilibrium samples were performed using an AB 3200 triple quadripole mass spectrometer linked to a Shimadzu DGU-20A HPLC with a Prevail C18 column (3 μm, 2.1×10 mm) with a flow rate of 0.35 ml/min. The mobile phase used was A: 0.1% Formic Acid in water, B: 0.1% Formic Acid in methanol. The elation gradient method is described in the table. Data acquisition and peak height determination was performed using Analyst v.1.4.2.
Calculations. The login of the effective permeability (LogPe) was calculated using the following equation
[formula] [formula] Where the drug concentration is the peak areas for the analyte and VD and VA is the volume of the donor and acceptor compartment respectively. The area is the surface area of the PVDF membrane (0.11 cm^2) and time is the incubation in seconds (64,800 sec). Each value is the mean of triplicates performed on the same day.

[2] = tested on: UTI89 biofilm; assay: Disruption of preformed UTI89 biofilm (PVC plates, coverslips, confocal); assay type: cell-based, uropathogenic E. coli UTI89; details: mannoside added to 24 h biofilm, further 16 h; confocal at 0.3 μM
Description: UTI89 biofilm was grown in LB+/− mannoside for 24 h at 22° C. in PVC plates and quantitated using crystal violet. UTI89 biofilm for confocal microscopy was grown in LB for 24 h at 22° C. on PVC coverslips. Mannoside was then added and biofilm was grown for an additional 16 h. Coverslips were then washed in PBS, fixed in 2% paraformaldehyde and stained with SYTO9 prior to confocal microscopy. For all animal experiments UTI89 or PBC-1 was grown 2×24 h statically in LB at 37° C. and inoculated at a dose of 1×10^7 bacteria in 50 μl. All mice used were female C3H/HeN (Jackson). For the pretreatment studies, bacteria were incubated with mannoside for 20 min prior to inoculation into the mouse. […] After growth at 37° C. overnight, bacterial counts were determined. […]
Biofilm assay. […] After 48 h of growth, wells were rinsed with water and stained with crystal violet for quantification as described. […] Wells were then rinsed, stained with crystal violet and quantified. […]
UTI89 was grown in LB in PVC plates and allowed to form biofilm at RT for 24 or 48 h. […] Biofilm formation was then quantitated using the standard crystal violet assay. […]
UTI89 was grown in LB broth in wells of PVC microtiter plates at 23° C. in the presence of individual mannosides at varying concentrations. After 48 h of growth, wells were rinsed with water and stained with crystal violet for quantification as described. […]

| Compound | PAMPA (LogPe) [1] | disruption / dispersal of preformed biofilm, qualitative [2] |
| --- | --- | --- |
| COC(=O)c1cccc(-c2ccc(O[C@H]3O[C@H](CO)[C@@H](O)[C@H](O)[C@@H]3O)cc2)c1 [Compound 1, phenyl mannoside, reference compound] | −5.42 | – |
| CNC(=O)c1cc(C(=O)NC)cc(-c2ccc(O[C@H]3O[C@H](CO)[C@@H](O)[C@H](O)[C@@H]3O)cc2)c1 [ZFH-2056] | – | lacked continuity; also recorded: dispersed biofilm |
